These results are taken from patent US6927208B1, “Cyclosporin with improved activity profile” (Debiopharm S.A., priority 1998, dated 2005).

Assay [1] has as its target cyclophilin A (Homo sapiens, UniProt P62937). The experiment in a line: competitive ELISA test, affinity of Cs derivatives for cyclophilin A. The format is binding. The settings on record: 1.0 = binds as well as CsA, lower than 1.0 = binds better. As for the experimental part: The results of Table 1 show the affinity of the derivatives of Cs for cyclophilin A in a competitive ELISA test described by Quesniaux in Eur. J. Immunology 1987, 17, 1359-1365. In this test, during incubation with cyclophilin, Cs bound to BSA (serum albumin) is added to the Cs to be tested. The concentration required to obtain 50% inhibition (IC50) of the reference reaction in the absence of competitor is then calculated. The results are expressed by the binding index BI which is the ratio of the IC50 of the derivative and the IC50 of CsA.
(In general: An ELISA detects its analyte on a solid surface through an enzyme-linked reagent.)

Assay [2] has as its system Balb/c mouse spleen cells stimulated with treated CBA mouse spleen cells. The experiment in a line: mixed lymphocyte reaction (MLR), immunosuppressive activity. The assay is classed as cell-based, mice. The settings on record: 5 days, greater than 1.0 = less active than CsA, >20 = not immunosuppressive. As for the experimental part: Cs is regarded as being immunosuppressive if its activity in the mixed lymphocyte reaction (MLR) is greater than 5%. The reaction (MLR) is described by T. Meo in “Immunological Methods”, L. Lefkovits and […]: 227-239 (1979). Spleen cells (0.5.10^6) originating from Balb/c mice (female, 8 to 10 weeks) are co-incubated for 5 days in the presence of treated spleen cells originating from CBA mice (females, 8 to 10 weeks). These cells were treated with mitomycin C or were irradiated at 2000 rads. […] The IC50 calculated in the MLR test is compared with the IC50 corresponding to CsA in a parallel experiment.

Assay [3] has as its system HIV in CEM-SS cell line. In words: protection during infection with HIV of a CEM-SS cell line (measured by the NCI). The assay is classed as cell-based. The settings on record: mean value at a derivative concentration of 2×10^−6 molar, compared with infection in the absence of Cs. As for the experimental part: The protection of this line in the presence of a Cs derivative is compared with the infection of a line cultivated in the absence of Cs (reference control). A mean value is established at a concentration of the derivative of 2×10^−6 molar. This anti-HIV activity was measured by the NCI (National Cancer Institute) in Washington in the USA.

Sequence of cyclophilin A (P62937 whole entry, species assumed): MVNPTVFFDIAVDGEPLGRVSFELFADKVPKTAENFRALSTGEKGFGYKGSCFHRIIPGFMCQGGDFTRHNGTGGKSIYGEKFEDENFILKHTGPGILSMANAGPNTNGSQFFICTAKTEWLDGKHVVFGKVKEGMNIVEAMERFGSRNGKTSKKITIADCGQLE

On to EtVal^4-Cs [UNIL 004], for which the “BI (binding index: ratio of the IC50 of the derivative and the IC50 of CsA)” value in assay [1] was 1.0. Further, the “IR (ratio of the IC50 of the MLR test of the derivative over the IC50 of cyclosporin A)” value in assay [2] is greater than 200. Further, in assay [3], the “Percentage HIV Protection” value was found to be 74.9.

Turning to cyclosporin A [UNIL 001], the “BI (binding index: ratio of the IC50 of the derivative and the IC50 of CsA)” value in assay [1] is 1.0. The “IR (ratio of the IC50 of the MLR test of the derivative over the IC50 of cyclosporin A)” value in assay [2] turned out to be 1.0.

In the case of `C/C=C/C[C@@H](C)[C@@H](O)[C@H]1C(=O)N[C@@H](CC)C(=O)N(C)CC(=O)N(C)[C@@H]([C@@H](C)CC)C(=O)N[C@@H](C(C)C)C(=O)N(C)[C@@H](CC(C)C)C(=O)N[C@@H](C)C(=O)N[C@H](C)C(=O)N(C)[C@@H](CC(C)C)C(=O)N(C)[C@@H](CC(C)C)C(=O)N(C)[C@@H](C(C)C)C(=O)N1C` [UNIL 007, MeIle^4-Cs], in assay [1], the “BI (binding index: ratio of the IC50 of the derivative and the IC50 of CsA)” value is 0.5. Further, the “IR (ratio of the IC50 of the MLR test of the derivative over the IC50 of cyclosporin A)” value in assay [2] was greater than 200. The “Percentage HIV Protection” value in assay [3] worked out at 68.5.

With MeVal^4-Cs [UNIL 002], the “BI (binding index: ratio of the IC50 of the derivative and the IC50 of CsA)” value in assay [1] is 0.6. Further, the “IR (ratio of the IC50 of the MLR test of the derivative over the IC50 of cyclosporin A)” value in assay [2] is greater than 200. In addition, the “Percentage HIV Protection” value in assay [3] stood at 66.4.

Take EtPhe(4-CH2PO(OMe)2)-Cs [UNIL 014]: the “BI (binding index: ratio of the IC50 of the derivative and the IC50 of CsA)” value in assay [1] amounted to 0.5. In addition, the “IR (ratio of the IC50 of the MLR test of the derivative over the IC50 of cyclosporin A)” value in assay [2] is listed as greater than 200.

For the compound EtIle4-Cs [UNIL 013], in assay [1], the “BI (binding index: ratio of the IC50 of the derivative and the IC50 of CsA)” value is listed as 1.3. Also, in assay [2], the “IR (ratio of the IC50 of the MLR test of the derivative over the IC50 of cyclosporin A)” value is greater than 200.
